# Data published in ChEMBL document CHEMBL1268954, “Toward the development of innovative bifunctional agents to induce differentiation and to promote apoptosis in leukemia: clinical candidates and perspectives” (J Med Chem, 2010).
# What was measured:
# [1] = Oral bioavailability in dog; type: ADME, organism-based, Canis lupus familiaris; conditions: in vivo
# [2] = Oral bioavailability in mouse; type: ADME, organism-based; conditions: in vivo
# [3] = Oral bioavailability in rat; type: ADME, organism-based; conditions: in vivo
# [4] = biological target: Apoptosis regulator Bcl-2 (Homo sapiens, UniProt P10415); test: Binding affinity to BCl2
# [5] = Inhibition of FTase
# [6] = Aqueous solubility of the compound; type: physicochemical; conditions: aqueous medium
# [7] = Induction of apoptosis in human CLL cells; type: functional, cell-based
# [8] = Selectivity ratio of IC50 for cathepsin to IC50 for proteasome
# [9] = Inhibition of proteasome; type: subcellular
# Cathepsin G [10] = biological target: T1, Cathepsin G (Homo sapiens, UniProt P08311); test: Inhibition of cathepsin G in human MOLT4 cells; type: cell-based, MOLT-4
# T1 sequence (P08311 whole entry): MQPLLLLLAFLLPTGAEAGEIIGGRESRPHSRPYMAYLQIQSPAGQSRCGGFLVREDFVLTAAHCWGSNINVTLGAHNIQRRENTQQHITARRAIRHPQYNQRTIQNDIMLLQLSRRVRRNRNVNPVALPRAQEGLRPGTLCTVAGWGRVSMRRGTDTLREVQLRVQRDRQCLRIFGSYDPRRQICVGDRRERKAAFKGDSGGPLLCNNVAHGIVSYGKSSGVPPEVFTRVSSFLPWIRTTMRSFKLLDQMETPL
# Cathepsin G [11] = biological target: T1, Cathepsin G; test: Inhibition of cathepsin G
# Chain of Apoptosis regulator Bcl-2 (P10415 whole entry): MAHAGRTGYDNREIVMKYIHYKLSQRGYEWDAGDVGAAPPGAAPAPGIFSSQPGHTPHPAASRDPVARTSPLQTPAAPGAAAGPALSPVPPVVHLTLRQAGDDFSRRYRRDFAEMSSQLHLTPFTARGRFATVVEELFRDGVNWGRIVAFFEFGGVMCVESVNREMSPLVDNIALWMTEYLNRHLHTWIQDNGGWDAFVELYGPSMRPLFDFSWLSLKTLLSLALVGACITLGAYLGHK
smiles,measurement,setting,value
COC[C@H](NC(=O)c1cnc(C)s1)C(=O)N[C@@H](COC)C(=O)N[C@@H](Cc1ccccc1)C(=O)[C@]1(C)CO1,bioavailability,[1],39%
same,bioavailability,[2],17%
same,bioavailability,[3],21%
CN(C)CC[C@H](CSc1ccccc1)Nc1ccc(S(=O)(=O)NC(=O)c2ccc(N3CCC(C)(C)CC3)cc2)cc1[N+](=O)[O-],Ki,[4],62 nM
Cn1cncc1[C@](N)(c1ccc(Cl)cc1)c1ccc2c(c1)c(-c1cccc(Cl)c1)cc(=O)n2C [(S)-TIPIFARNIB],EC50,[5],1.8 nM
CN(C)CC[C@H](CSc1ccccc1)Nc1ccc(S(=O)(=O)NC(=O)c2ccc(N3CCN(Cc4ccccc4-c4ccc(Cl)cc4)CC3)cc2)cc1[N+](=O)[O-] [ABT 737],solubility,[6],< 1 µg/mL
same,EC50,[7],4.5 nM
CC(C)C[C@H](NC(=O)[C@H](Cc1ccccc1)NC(=O)c1cnccn1)B(O)O [BORTEZOMIB],Ratio IC50,[8],200000
same,IC50,[9],0.6 nM
CC(C)C[C@H](NC(=O)[C@@H](NC(=O)c1cccc(-c2ccccc2)n1)[C@@H](C)O)B(O)O [DELANZOMIB],EC50,Cathepsin G [10],13.5 nM
same,IC50,Cathepsin G [11],13.7 nM
Cn1cncc1[C@@](N)(c1ccc(Cl)cc1)c1ccc2c(c1)c(-c1cccc(Cl)c1)cc(=O)n2C [TIPIFARNIB],IC50,[5],0.6 nM
